Measured values reported in publication PMC6706138, “IL-6–HaloTag® enables live-cell plasma membrane staining, flow cytometry, functional expression, and de-orphaning of recombinant odorant receptors” (Journal of Biological Methods, 2017).

Columns and labels:
Format in all cases: cell-based
OR2M3 = molecular target: T1, OR2M3 (Homo sapiens, UniProt Q8NG83); experiment: GloSensor cAMP luminescence; conditions: IL-6-HaloTag construct, NxG […]CC15 cells, pH […] DMSO, RTP1S/Gαolf/Gγ[…] co-transfected; agonist; read-out: IL-6-HaloTag®-receptor / EC50
T1 construct: full coding region amplified from human genomic DNA, N-terminal IL-6-HaloTag kept, transient in NxG 108CC15 cells with RTP1S, G-alpha-olf, G-gamma-13, GloSensor-22F
T1 sequence (Q8NG83 1-312): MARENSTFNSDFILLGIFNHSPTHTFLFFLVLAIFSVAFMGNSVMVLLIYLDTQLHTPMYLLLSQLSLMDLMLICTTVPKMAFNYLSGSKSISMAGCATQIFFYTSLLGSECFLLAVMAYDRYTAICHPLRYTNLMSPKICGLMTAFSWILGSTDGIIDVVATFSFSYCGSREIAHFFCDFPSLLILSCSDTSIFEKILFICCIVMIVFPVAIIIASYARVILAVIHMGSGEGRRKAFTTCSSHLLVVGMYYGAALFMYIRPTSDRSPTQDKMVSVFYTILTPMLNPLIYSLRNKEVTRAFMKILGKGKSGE
Source text: GloSensor cAMP luminescence on OR2M3

OR1A1 [1] = molecular target: T2, OR1A1 (Homo sapiens, UniProt Q9P1Q5); experiment: GloSensor cAMP luminescence; conditions: read-out: IL-6-HaloTag®-receptor / EC50
T2 construct: full coding region amplified from human genomic DNA, N-terminal IL-6-HaloTag kept, transient in NxG 108CC15 cells with RTP1S, G-alpha-olf, G-gamma-13, GloSensor-22F
T2 sequence (Q9P1Q5 1-309): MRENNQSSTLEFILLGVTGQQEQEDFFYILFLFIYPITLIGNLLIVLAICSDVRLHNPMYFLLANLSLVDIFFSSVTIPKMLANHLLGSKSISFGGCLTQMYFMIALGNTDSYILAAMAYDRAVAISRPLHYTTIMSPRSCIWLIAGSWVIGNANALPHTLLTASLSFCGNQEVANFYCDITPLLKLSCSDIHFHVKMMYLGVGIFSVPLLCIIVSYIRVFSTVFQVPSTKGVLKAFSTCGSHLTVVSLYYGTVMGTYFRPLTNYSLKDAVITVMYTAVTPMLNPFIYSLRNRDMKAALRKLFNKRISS
Source text: GloSensor cAMP luminescence on OR1A1

OR2W1 = molecular target: T3, OR2W1 (Homo sapiens, UniProt Q9Y3N9); experiment: GloSensor cAMP luminescence
T3 construct: full coding region amplified from human genomic DNA, N-terminal IL-6-HaloTag kept, transient in NxG 108CC15 cells with RTP1S, G-alpha-olf, G-gamma-13, GloSensor-22F
T3 sequence (Q9Y3N9 1-320): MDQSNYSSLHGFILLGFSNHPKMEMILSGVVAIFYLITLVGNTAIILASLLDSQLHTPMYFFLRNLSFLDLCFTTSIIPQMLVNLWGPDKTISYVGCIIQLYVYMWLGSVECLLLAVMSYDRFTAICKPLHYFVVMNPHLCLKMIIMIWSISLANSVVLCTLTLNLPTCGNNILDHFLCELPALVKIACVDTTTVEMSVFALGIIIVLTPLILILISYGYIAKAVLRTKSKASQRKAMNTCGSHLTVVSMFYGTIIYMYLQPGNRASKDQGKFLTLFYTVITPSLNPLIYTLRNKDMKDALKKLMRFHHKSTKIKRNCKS
Source text: GloSensor cAMP luminescence on OR2W1

OR1A1 [2] = molecular target: T2, OR1A1; experiment: GloSensor cAMP luminescence, single-concentration screen; conditions: IL-6-HaloTag construct, NxG […]CC15 cells, n = […] in duplicates, agonist
OR51E1 = molecular target: T4, OR51E1 (Homo sapiens, UniProt Q8TCB6); experiment: GloSensor cAMP luminescence; conditions: read-out: IL-6-HaloTag®-receptor / EC50
T4 construct: full coding region amplified from human genomic DNA, N-terminal IL-6-HaloTag kept, transient in NxG 108CC15 cells with RTP1S, G-alpha-olf, G-gamma-13, GloSensor-22F
T4 sequence (Q8TCB6 1-318): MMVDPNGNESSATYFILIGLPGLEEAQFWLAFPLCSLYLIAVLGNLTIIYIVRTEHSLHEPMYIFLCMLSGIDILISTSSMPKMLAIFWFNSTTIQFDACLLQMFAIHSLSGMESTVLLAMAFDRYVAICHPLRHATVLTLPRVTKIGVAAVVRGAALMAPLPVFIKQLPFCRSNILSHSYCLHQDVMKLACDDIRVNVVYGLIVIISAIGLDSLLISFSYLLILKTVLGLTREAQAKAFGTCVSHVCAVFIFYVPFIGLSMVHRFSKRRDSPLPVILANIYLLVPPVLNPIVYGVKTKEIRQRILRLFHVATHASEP
Source text: GloSensor cAMP luminescence on OR51E1

OR10J5 = molecular target: T5, OR10J5 (Homo sapiens, UniProt Q8NHC4); experiment: GloSensor cAMP luminescence; conditions: read-out: IL-6-HaloTag®-receptor / EC50
T5 construct: full coding region amplified from human genomic DNA, N-terminal IL-6-HaloTag kept, transient in NxG 108CC15 cells with RTP1S, G-alpha-olf, G-gamma-13, GloSensor-22F
T5 sequence (Q8NHC4 1-309): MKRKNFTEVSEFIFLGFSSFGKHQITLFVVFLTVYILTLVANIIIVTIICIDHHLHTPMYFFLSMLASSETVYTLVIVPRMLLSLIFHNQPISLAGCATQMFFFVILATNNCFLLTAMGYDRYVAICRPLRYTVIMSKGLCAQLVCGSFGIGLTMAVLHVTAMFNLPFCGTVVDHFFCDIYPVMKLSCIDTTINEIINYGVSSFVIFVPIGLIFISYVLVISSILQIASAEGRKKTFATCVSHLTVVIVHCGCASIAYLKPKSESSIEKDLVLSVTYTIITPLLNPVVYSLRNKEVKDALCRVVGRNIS
Source text: GloSensor cAMP luminescence on OR10J5

Olfr16 = molecular target: T6, Olfr16 (Mus musculus, UniProt Q62007); experiment: GloSensor cAMP luminescence; conditions: read-out: IL-6-HaloTag®-receptor / EC50
T6 construct: gene Or10j5; full coding region amplified from mouse genomic DNA, N-terminal IL-6-HaloTag kept, transient in NxG 108CC15 cells with RTP1S, G-alpha-olf, G-gamma-13, GloSensor-22F
T6 sequence (Q62007 1-309): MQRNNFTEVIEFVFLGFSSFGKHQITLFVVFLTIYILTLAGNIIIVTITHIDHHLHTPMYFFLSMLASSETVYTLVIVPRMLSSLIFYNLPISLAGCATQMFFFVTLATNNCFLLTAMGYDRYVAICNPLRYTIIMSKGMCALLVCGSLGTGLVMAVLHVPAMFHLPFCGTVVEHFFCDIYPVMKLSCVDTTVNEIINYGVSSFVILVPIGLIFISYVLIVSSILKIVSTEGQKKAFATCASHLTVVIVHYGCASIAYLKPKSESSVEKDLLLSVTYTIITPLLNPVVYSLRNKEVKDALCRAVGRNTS
Source text: GloSensor cAMP luminescence on Olfr16

OR8D1 = molecular target: T7, OR8D1 (Homo sapiens, UniProt Q8WZ84); experiment: GloSensor cAMP luminescence
T7 construct: full coding region amplified from human genomic DNA, N-terminal IL-6-HaloTag kept, transient in NxG 108CC15 cells with RTP1S, G-alpha-olf, G-gamma-13, GloSensor-22F
T7 sequence (Q8WZ84 1-308): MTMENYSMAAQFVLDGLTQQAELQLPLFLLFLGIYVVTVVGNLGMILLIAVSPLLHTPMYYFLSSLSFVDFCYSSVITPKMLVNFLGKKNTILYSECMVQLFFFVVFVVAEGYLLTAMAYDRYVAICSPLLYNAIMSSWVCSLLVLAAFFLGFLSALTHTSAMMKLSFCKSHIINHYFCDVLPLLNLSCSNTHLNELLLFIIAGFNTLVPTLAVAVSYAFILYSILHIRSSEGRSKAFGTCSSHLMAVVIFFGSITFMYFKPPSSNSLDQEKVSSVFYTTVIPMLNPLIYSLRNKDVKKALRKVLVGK
Source text: GloSensor cAMP luminescence on OR8D1

CCC(S)C(C)CO (centres unmarked) [3-mercapto-2-methylpentan-1-ol]
EC50 (OR2M3): 1.08 ± 1.16 µM

C=C(C)[C@@H]1CC=C(C)C(=O)C1 [(R)-(-)-carvone]
EC50 (OR1A1 [1]): 7.66 ± 4.75 µM

C=CCOC(=O)Cc1ccccc1 [allyl phenyl acetate]
EC50 (OR2W1): 27 ± 1.37 µM | GloSensor cAMP luminescence, single-concentration screen (OR1A1 [2]): allyl phenyl acetate best activated OR1A1 and OR2W1

CCCC(=O)O [butyric acid]
EC50 (OR51E1): 95.6 ± 33.4 µM

CC(C)(O)CCCC1=CCC(C=O)CC1 (centres unmarked) [lyral]
EC50 (OR10J5): 16.3 ± 1.05 µM | EC50 (Olfr16): 34 ± 2.21 µM

CC1=C(O)C(=O)OC1C (centres unmarked) [sotolone]
EC50 (OR8D1): 1.81 ± 0.19 µM
